In ChEMBL document CHEMBL3272295, “Drugs derived from cannabinoids. 5. delta6a,10a-Tetrahydrocannabinol and heterocyclic analogs containing aromatic side chains” (J Med Chem, 1976):
The source made the active and inactive calls.

Legend:
Rattus norvegicus [1] = assay: Antipsychotic activity in rat assessed as reduction of methamphetamine-induced hyperactivity at 1 mg/kg, po administered prior to methamphetamine challenge relative to vehicle-treated control; type: functional; set-up: scale not given: the % may be the effect or the level left
[2] = Acute toxicity in po dosed mouse; type: organism-based; conditions: in vivo
Rattus norvegicus [3] = assay: Analgesic activity in po dosed Sprague-Dawley rat after 15 to 90 mins by tail flick test; type: functional
Mus musculus [4] = assay: Analgesic activity in mouse assessed as inhibition of acetic acid-induced writhing at 20 mg/kg, po administered 30 mins prior to acetic acid challenge measured after 5 mins for 20 mins; type: functional
Rattus norvegicus [5] = assay: Antianxiety activity in Long-Evans rat assessed as reduction in motor activity at 5 mg/kg, po after 2 hrs relative to vehicle-treated control; type: functional; set-up: scale not given: the % may be the effect or the level left
Rattus norvegicus [6] = assay: Antianxiety activity in Long-Evans rat assessed as reduction in motor activity at 40 mg/kg, po after 2 hrs relative to vehicle-treated control; type: functional; set-up: scale not given: the % may be the effect or the level left
Rattus norvegicus [7] = assay: Antipsychotic activity in rat assessed as reduction of methamphetamine-induced hyperactivity at 5 mg/kg, po administered prior to methamphetamine challenge relative to vehicle-treated control; type: functional; set-up: scale not given: the % may be the effect or the level left
Rattus norvegicus [8] = assay: Antipsychotic activity in rat assessed as reduction of methamphetamine-induced hyperactivity at 10 mg/kg, po administered prior to methamphetamine challenge relative to vehicle-treated control; type: functional; set-up: scale not given: the % may be the effect or the level left
Rattus norvegicus [9] = assay: Antipsychotic activity in rat assessed as reduction of methamphetamine-induced hyperactivity at 20 mg/kg, po administered prior to methamphetamine challenge relative to vehicle-treated control; type: functional; set-up: scale not given: the % may be the effect or the level left
Mus musculus [10] = assay: Analgesic activity in po dosed mouse assessed as inhibition of acetic acid-induced writhing administered 30 mins prior to acetic acid challenge measured after 5 mins for 20 mins; type: functional
Rattus norvegicus [11] = assay: Analgesic activity in Sprague-Dawley rat assessed as increase in pain threshold at 20 mg/kg, po after 15 to 90 mins by tail flick test; type: functional
Mus musculus [12] = assay: Antianxiety activity in albino BALB/cJ mouse assessed as reduction in footshock-induced fighting behavior at 5 mg/kg, po after 30 to 90 mins; type: functional; set-up: scale not given: the % may be the effect or the level left
Rattus norvegicus [13] = assay: Antianxiety activity in Long-Evans rat assessed as reduction in motor activity at 10 mg/kg, po after 2 hrs relative to vehicle-treated control; type: functional; set-up: scale not given: the % may be the effect or the level left
Rattus norvegicus [14] = assay: Analgesic activity in Sprague-Dawley rat assessed as increase in pain threshold at 60 mg/kg, po after 15 to 90 mins by tail flick test; type: functional
Rhesus monkey = assay: Antianxiety activity in po dosed rhesus monkey assessed as antiagressive behavior measured every hour post dosing; type: functional; conditions: Macaca mulatta, read-out: MED
Rattus norvegicus [15] = assay: Antiulcer activity in albino Sprague-Dawley rat shay ulcer model assessed as ulcer index scores at 40 mg/kg administered intraduodenally post pyloric ligation measured after 18.5 hrs relative to vehicle-treated control; type: functional; conditions: route intraduodenal
Rattus norvegicus [16] = assay: Antiulcer activity in albino Sprague-Dawley rat shay ulcer model assessed as ulcer index scores at 50 mg/kg administered intraduodenally post pyloric ligation measured after 18.5 hrs relative to vehicle-treated control; type: functional; conditions: route intraduodenal
Rattus norvegicus [17] = assay: Antidiarrheal activity in Charles River rat assessed as inhibition of castor oil-induced diarrhea by measuring protected animals at 0.25 mg/kg, po administered 1 hr prior to castor oil challenge measured after 1 hr relative to vehicle-treated control; type: functional
Rattus norvegicus [18] = assay: Antisecretory activity in Sprague-Dawley rat assessed as decrease in acid output at 50 mg/kg, po administered 30 mins prior to pylorus ligation measured after 4 hrs relative to control; type: functional; set-up: scale not given: the % may be the effect or the level left
Rattus norvegicus [19] = assay: Antisecretory activity in Sprague-Dawley rat assessed as decrease in pepsin output at 50 mg/kg, po administered 30 mins prior to pylorus ligation measured after 4 hrs relative to control; type: functional; set-up: scale not given: the % may be the effect or the level left
Rattus norvegicus [20] = species on record: Rattus norvegicus; assay: animal or person; type: functional; conditions: Charles River, route oral
Description: Antidiarrheal activity in Charles River rat assessed as inhibition of castor oil-induced diarrhea by measuring protected animals at 0.5 mg/kg, po administered 1 hr prior to castor oil challenge measured after 1 hr relative to vehicle-treated control

Rattus norvegicus [21] = species on record: Rattus norvegicus; assay: animal or person; type: functional; conditions: Charles River, route oral; remark: listed apart in the source
Description: Antidiarrheal activity in Charles River rat assessed as inhibition of castor oil-induced diarrhea by measuring protected animals at 1 mg/kg, po administered 1 hr prior to castor oil challenge measured after 1 hr relative to vehicle-treated control

Rattus norvegicus [22] = assay: Antiulcer activity in albino Sprague-Dawley rat stress ulcer model assessed as prevention of stress-induced gastric lesions by measuring ulcer index score at 10 mg/kg, po administered 30 mins prior to stress measured after 4 hrs; type: functional, Stomach
Rattus norvegicus [23] = assay: Antiulcer activity in albino Sprague-Dawley rat reserpine ulcer model assessed as prevention of reserpine-induced gastric lesions by measuring ulcer index scores at 10 mg/kg, po administered 30 mins prior to reserpine challenge measured after 6 hrs; type: functional; conditions: Stomach
Rattus norvegicus [24] = assay: Antiulcer activity in albino Sprague-Dawley rat shay ulcer model assessed as ulcer index scores at 20 mg/kg administered intraduodenally post pyloric ligation measured after 18.5 hrs relative to vehicle-treated control; type: functional; conditions: route intraduodenal
Rattus norvegicus [25] = assay: Antiulcer activity in albino Sprague-Dawley rat stress ulcer model assessed as prevention of stress-induced gastric lesions by measuring ulcer index score at 40 mg/kg, po administered 30 mins prior to stress measured after 4 hrs; type: functional, Stomach
Rattus norvegicus [26] = assay: Antiulcer activity in albino Sprague-Dawley rat reserpine ulcer model assessed as prevention of reserpine-induced gastric lesions by measuring ulcer index scores at 50 mg/kg, po administered 30 mins prior to reserpine challenge measured after 6 hrs; type: functional, Stomach
Mus musculus [27] = assay: Antidepressant activity in po dosed mouse assessed as potentiation of DOPA-induced effect administered 4 hrs prior to DOPA challenge; type: functional; conditions: read-out: MED
Rattus norvegicus [28] = assay: Antihypertensive activity in spontaneously hypertensive rat model assessed as reduction in blood pressure at 10 mg/kg, po after 3 hrs; type: functional; set-up: scale not given: the % may be the effect or the level left
Rattus norvegicus [29] = assay: Antihypertensive activity in spontaneously hypertensive rat model assessed as reduction in blood pressure at 10 mg/kg, po after 24 hrs; type: functional; set-up: scale not given: the % may be the effect or the level left
Rattus norvegicus [30] = assay: Antihypertensive activity in spontaneously hypertensive rat model assessed as reduction in blood pressure at 3 mg/kg, po after 3 hrs; type: functional; set-up: scale not given: the % may be the effect or the level left
Rattus norvegicus [31] = assay: Antihypertensive activity in spontaneously hypertensive rat model assessed as reduction in blood pressure at 3 mg/kg, po after 24 hrs; type: functional; set-up: scale not given: the % may be the effect or the level left
Felis catus [32] = assay: Hypnotic activity in cat assessed as increase in total sleep time at 1 mg/kg administered orally through diet measured for 12 hrs by EEG analysis; type: functional; conditions: route oral
Felis catus [33] = assay: Hypnotic activity in cat assessed as increase in total sleep time at 0.5 mg/kg administered orally through diet measured for 12 hrs by EEG analysis; type: functional; conditions: route oral
Felis catus [34] = assay: Hypnotic activity in cat assessed as decrease in total sleep time at 0.025 mg/kg administered orally through diet measured for 12 hrs by EEG analysis; type: functional; conditions: route oral
Felis catus [35] = assay: Hypnotic activity in cat assessed as increase in total sleep time at 0.1 mg/kg administered orally through diet measured for 12 hrs by EEG analysis; type: functional; conditions: route oral
Felis catus [36] = assay: Hypnotic activity in cat assessed as increase in total sleep time at 0.25 mg/kg administered orally through diet measured for 12 hrs by EEG analysis; type: functional; conditions: route oral
Felis catus [37] = assay: Hypnotic activity in cat assessed as increase in non-REM sleep time at 0.5 mg/kg administered orally through diet measured for 12 hrs by EEG analysis; type: functional; conditions: route oral
Felis catus [38] = assay: Hypnotic activity in cat assessed as increase in non-REM sleep time at 0.025 mg/kg administered orally through diet measured for 12 hrs by EEG analysis; type: functional; conditions: route oral
Felis catus [39] = assay: Hypnotic activity in cat assessed as increase in non-REM sleep time at 0.1 mg/kg administered orally through diet measured for 12 hrs by EEG analysis; type: functional; conditions: route oral
Felis catus [40] = assay: Hypnotic activity in cat assessed as increase in non-REM sleep time at 0.25 mg/kg administered orally through diet measured for 12 hrs by EEG analysis; type: functional; conditions: route oral
Rattus norvegicus [41] = assay: Antisecretory activity in Sprague-Dawley rat assessed as decrease in volume at 50 mg/kg, po administered 30 mins prior to pylorus ligation measured after 4 hrs relative to control; type: functional; set-up: scale not given: the % may be the effect or the level left
Rattus norvegicus [42] = assay: Antisecretory activity in Sprague-Dawley rat assessed as decrease in acidity at 50 mg/kg, po administered 30 mins prior to pylorus ligation measured after 4 hrs relative to control; type: functional; set-up: scale not given: the % may be the effect or the level left
Rattus norvegicus [43] = assay: Antianxiety activity in Long-Evans rat assessed as reduction in motor activity at 1 mg/kg, po after 2 hrs relative to vehicle-treated control; type: functional; set-up: scale not given: the % may be the effect or the level left
Mus musculus [44] = assay: Antianxiety activity in albino BALB/cJ mouse assessed as reduction in footshock-induced fighting behavior at 10 mg/kg, po after 30 to 90 mins; type: functional; set-up: scale not given: the % may be the effect or the level left
Mus musculus [45] = assay: Antianxiety activity in albino BALB/cJ mouse assessed as reduction in footshock-induced fighting behavior at 1 mg/kg, po after 30 to 90 mins; type: functional; set-up: scale not given: the % may be the effect or the level left
Rattus norvegicus [46] = assay: Antianxiety activity in Long-Evans rat assessed as reduction in motor activity at 0.5 mg/kg, po after 2 hrs relative to vehicle-treated control; type: functional; set-up: scale not given: the % may be the effect or the level left
Canis familiaris = assay: Antianxiety activity in po dosed dog assessed as ataxia administered as single dose measured up to 24 hrs; type: functional; conditions: Canis lupus familiaris, read-out: MED
Rattus norvegicus [47] = assay: Antianxiety activity in Long-Evans rat assessed as reduction in motor activity at 100 mg/kg, po after 2 hrs relative to vehicle-treated control; type: functional; set-up: scale not given: the % may be the effect or the level left

C#CCN1CCC2=C(C1)c1c(OC(C)=O)cc(C(C)CCCc3ccc(F)cc3)cc1OC2(C)C (stereo not drawn)
Activity (Rattus norvegicus [1]): 30%
LD50 [2]: ≥ 1000 mg/kg
ED50 (Rattus norvegicus [3]): 1 mg/kg
inhibition in vivo at 20 mg/kg (Mus musculus [4]): 27%
Activity (Rattus norvegicus [5]): 57%
Activity (Rattus norvegicus [6]): 90%
Activity (Rattus norvegicus [7]): 66%

CN(C)CCCN1c2ccccc2Sc2ccc(Cl)cc21 [CHLORPROMAZINE]
Activity (Rattus norvegicus [8]): 83%
Activity (Rattus norvegicus [9]): 93%
ED50 (Mus musculus [10]): 2.4 mg/kg
Activity (Rattus norvegicus [11]): 37%
Activity (Mus musculus [12]): 79%
Activity (Rattus norvegicus [13]): 76%
Activity (Rattus norvegicus [7]): 11%

CN1C(=O)CN=C(c2ccccc2)c2cc(Cl)ccc21 [DIAZEPAM]
ED50 (Mus musculus [10]): 4 mg/kg
Activity (Rattus norvegicus [14]): 64%
Activity (Mus musculus [12]): 95%
Activity (Rattus norvegicus [5]): 15%
Activity (Rattus norvegicus [6]): 60%
minimal effective dose (Rhesus monkey): 1 mg/kg

C#CCN1CCC2=C(C1)c1c(O)cc(C(C)C(C)CCCCC)cc1OC2(C)C (stereo not drawn)
UI (Rattus norvegicus [15]): 0.3
UI (Rattus norvegicus [16]): 0.5
inhibition in vivo at 0.25 mg/kg (Rattus norvegicus [17]): 20%
Activity (Rattus norvegicus [18]): 49.8%
Activity (Rattus norvegicus [19]): 41.9%
inhibition in vivo at 0.5 mg/kg (Rattus norvegicus [20]): 63%
inhibition in vivo at 1 mg/kg (Rattus norvegicus [21]): 100%
UI (Rattus norvegicus [22]): 1.3
Activity (Rattus norvegicus [23]): inactive
UI (Rattus norvegicus [24]): 4.2
LD50 [2]: ≥ 1000 mg/kg
UI (Rattus norvegicus [25]): 1.6
UI (Rattus norvegicus [26]): 1.8
Activity (Rattus norvegicus [8]): 74%
minimal effective dose (Mus musculus [27]): 2 mg/kg
Activity (Rattus norvegicus [28]): 23%
Activity (Rattus norvegicus [29]): 27%
Activity (Rattus norvegicus [30]): 7%
Activity (Rattus norvegicus [31]): 4%
Time (Felis catus [32]): 39 min
Time (Felis catus [33]): 44 min
Time (Felis catus [34]): -12 min
Time (Felis catus [35]): 100 min
Time (Felis catus [36]): 56 min
Time (Felis catus [37]): 28 min
Time (Felis catus [38]): 25 min
Time (Felis catus [39]): 62 min
Time (Felis catus [40]): 21 min
Activity (Rattus norvegicus [41]): 39.3%
Activity (Rattus norvegicus [42]): 23.5%
ED50 (Mus musculus [10]): 4.3 mg/kg
Activity (Rattus norvegicus [43]): 71%
Activity (Mus musculus [44]): 62%
Activity (Mus musculus [45]): 42%
Activity (Rattus norvegicus [13]): 75%
Activity (Rattus norvegicus [46]): 35%
minimal effective dose (Canis familiaris): 1 mg/kg
Activity (Rattus norvegicus [7]): 52%

CC(C)=CCN1CC[C@]2(C)c3cc(O)ccc3C[C@H]1[C@H]2C [(+)-PENTAZOCINE]
inhibition in vivo at 0.5 mg/kg (Rattus norvegicus [20]): 0%
ED50 (Mus musculus [10]): 37.6 mg/kg
ED50 (Rattus norvegicus [3]): 60 mg/kg
Activity (Rattus norvegicus [13]): 30%
Activity (Rattus norvegicus [47]): 64%
